The numbers were not newly measured in patent US20090012085A1, “DOSAGE FORMS AND METHODS OF TREATMENT USING A TYROSINE KINASE INHIBITOR” (priority 2005, published 2009), which cites them from elsewhere.

The subject of the data set is solid and hematopoietic cancer xenograft models. Conditions: diverse preclinical solid and hematopoietic cancer xenograft models; cited from earlier work.

Turning to `Cc1[nH]c(/C=C2\C(=O)Nc3ccc(F)cc32)c(C)c1C(=O)NC[C@H](O)CN1CCOCC1` [compound 1, 5-[(Z)-(5-fluoro-2-oxo-1,2-dihydro-3H-indol-3-ylidene)methyl]-N-[(2S)-2-hydroxy-3-morpholin-4-ylpropyl]-2,4-dimethyl-1H-pyrrole-3-carboxamide], the anti-tumor activity entry is given as “has anti-tumor activity”.
